Read-outs that look alike come from different tables or passages of the source.
Experiments:
[1] = test system: HMVEC (human neonatal microvascular endothelial cells); assay: Cell survival by clonogenic assay (colony count or MTT) in HMVEC; details: for clonogenic toxicity to HMVEC after 1 hour exposure versus 6 hours: 1 and 6 hours exposure, washed, 3 more days, MTT assay (FIG. 5); for clonogenic cytotoxicity, HMVEC, limited exposure: exposure limited to 2 hours, clonogenic cytotoxicity estimated at 5 days (FIG. 2A)
Procedure: (§1) Cell culture. Four commercially available human cell lines were grown in the indicated media below in 5% CO2, 80% humidity and 37EC: • 1. HL60 human leukemic cells, a pro-apoptotic cell line—cultured in RPMI 1640 fortified with 10% fetal calf serum. • 2. K562 human leukemic cells, an apoptotic-resistant cell line—cultured in RPMI 1640 fortified with 10% fetal calf serum. • 3. Human neonatal microvascular endothelial cells (HMVEC)—cultured in medium 131+microvascular growth supplement (MVGS)+attachment factor (AF)=500 ml+25 ml (AF is added 2-3 ml/T-25 flask; all reagents supplied by Cascade Biologics, Inc., Portland, Oreg.). • 4. Human neonatal dermal fibroblasts (HDF)—cultured in medium 106+low serum growth supplement (LSGS)=500 ml+10 ml (Cascade Biologics, Inc.).
Cell survival by clonogenic assay. This assay is based on a description reported by Schweitzer et al. (Expt. Haematol. 21: 573-578, 1993) with slight modifications. […] After 5 days of incubation under the standard culture conditions stated above, colonies (>40 cells) were counted by an inverted light microscope or estimated by MTT assay. IC50 values were obtained from the fitted curves of percentage of the control versus the drug concentrations. […]
The combretastatins are a family of naturally occurring tubulin binding agents comprising an A-,B-,C- and D- series of structures (U.S. Pat. Nos. 4,940,726; 4,996,237; 5,409,953; and 5,569,786). […] The compounds were added to microcultures in DMSO (i.e <0.5%) and toxicity was evaluated by MTT assay after 5-7 days in culture. […]

[2] = test system: HDF (human neonatal dermal fibroblasts); assay: Cell survival by clonogenic assay (colony count or MTT) in HDF
Procedure: as §1
Cell survival by clonogenic assay. This assay is based on a description reported by Schweitzer et al. (Expt. Haematol. 21: 573-578, 1993) with slight modifications. […] After 5 days of incubation under the standard culture conditions stated above, colonies (>40 cells) were counted by an inverted light microscope or estimated by MTT assay. IC50 values were obtained from the fitted curves of percentage of the control versus the drug concentrations.
Experiment 1. HLGO, K562, HDF, and HMVEC cells were either cultured in 96-well plates at the indicated concentrations (FIGS. 2A and 2B) for 5 days in the presence of A4 prodrug, or after 2 hours exposure the drug-containing media was removed, fresh media added, and the cells cultured for an additional 5 days. Clonogenic growth was recorded after 5 days incubation for all treatments.
Experiment 2. HMVEC and HDF were cultured in 96-well microtiter plates initially containing 800 cells/well. The cells were cultured for 1 hour in the presence of the indicated concentrations of A4 prodrug ∀1 unit of alkaline phosphatase. The medium was removed, the cells washed, and fresh medium added, and the cells were incubated for an additional 5 days. Clonogenic growth was then established by the MTT assay.
The combretastatins are a family of naturally occurring tubulin binding agents comprising an A-,B-,C- and D- series of structures (U.S. Pat. Nos. 4,940,726; 4,996,237; 5,409,953; and 5,569,786). […] The compounds were added to microcultures in DMSO (i.e <0.5%) and toxicity was evaluated by MTT assay after 5-7 days in culture.
All of the compounds were evaluated for toxicity after a one-hour exposure in microculture and assayed for cytotoxicity by MTT assay after an additional 5 days' incubation in culture.

[3] = test system: HL60 human leukemic cells; assay: Cell survival by clonogenic assay in HL-60; assay type: cell-based
Source text: (§2) Cell survival by clonogenic assay.

[4] = test system: ocular vessels; assay: Ocular neovascularization induced by lipid hydroperoxide (LHP) in rabbit eyes; assay type: in vivo; details: i.v. 40 mg/kg once a day for five days, eyes examined seven days later
Procedure: To simulate pathogenic ocular angiogenesis, ocular neovascularization was induced by administration of lipid hydroperoxide (LHP) by intra-corneal injection at a dosage of 30 μg to rabbit eyes. Seven to 14 days later, ocular vessels formed in the injected eyes due to LHP insult. The subjects were divided into two groups; those of one group were given combretastatin A4 disodium phosphate by intravenous administration at a dosage of 40 mg/kg once a day for five days, while a vehicle without combretastatin A4 disodium phosphate was administered to the other group by i.v. administration as a dosage of water for the same time period. The eyes of both groups were examined seven days later.

[5] = test system: K562 human leukemic cells; assay: Cell survival by clonogenic assay in K562; assay type: cell-based; details: 5 days exposure (FIG. 2B); read-out: IC50 clonogenic cytotoxicity, K562
Source text: as §2

[6] = read-out: IC50 clonogenic toxicity values, HMVEC, compounds added in DMSO (<0.5%), MTT assay after 5-7 days in culture
[7] = read-out: IC50 values HMVEC, one-hour exposure, MTT assay after additional 5 days' incubation
[8] = read-out: IC50 clonogenic toxicity values, HDF, compounds added in DMSO (<0.5%), MTT assay after 5-7 days in culture
[9] = read-out: IC50 values HDF, one-hour exposure, MTT assay after additional 5 days' incubation
[10] = compounds added in DMSO (<0.5%), MTT assay after 5-7 days in culture, read-out: IC50 clonogenic toxicity values, HL-60

Molecule	IC50 [1, 6] [µM]	IC50 [1, 7] [µM]	IC50 [2, 8] [µM]	IC50 [2, 9] [µM]	IC50 [3, 10] [µM]	also measured
COc1ccc(/C=C\c2cc(OC)c(OC)c(OC)c2)c(O)c1O [Combretastatin A1]	0.5	10 to 15	0.02	0.5 to 1		clonogenic toxicity to HMVEC after 1 hour exposure versus 6 hours [1]: did not induce maximum toxicity
COc1ccc(/C=C\c2cc(OC)c3c(c2)OCO3)cc1O [Combretastatin A2, reference compound]	0.03 to 0.04		0.025 to 0.035		0.015	
COc1ccc(/C=C\c2cc(O)c(OC)c(OC)c2)cc1O [Combretastatin A3, reference compound]	> 0.012		0.008 to 0.01		0.005	
COc1ccc(/C=C\c2cc(OC)c(OC)c(OC)c2)cc1OP(=O)([O-])[O-].[Na+].[Na+] [Combretastatin A4 Na2PO4, combretastatin A4 disodium phosphate]		0.075 to 0.15		> 0.5		IC50 ([3]; 5 days exposure (FIG. 2B), read-out: IC50 clonogenic cytotoxicity, HL60): 0.0015 to 0.0025 µM; reduction of vessels [4]: ≥ 40%; IC50 [5]: 0.0015 to 0.0025 µM; clonogenic cytotoxicity, HMVEC, limited exposure [1]: only HMVEC showed IC50 cytotoxicity; clonogenic cytotoxicity, HMVEC, limited exposure ([1]; listed as A4 prodrug): quite sensitive; IC50 ([1]; read-out: IC50 clonogenic cytotoxicity, HMVEC, 5 days exposure (FIG. 2B)): 0.0015 to 0.0025 µM; cytotoxicity to HDF with added alkaline phosphatase, compared with HMVEC ([2]; 1 hour exposure, 1 unit alkaline phosphatase added (FIG. 3)): the same for HMVEC and HDF; cytotoxicity to HDF without added alkaline phosphatase ([2]; 1 hour exposure, no added alkaline phosphatase (FIG. 3)): lack of cytotoxicity; IC50 ([2]; read-out: IC50 clonogenic cytotoxicity, HDF, 5 days exposure (FIG. 2B)): 0.0015 to 0.0025 µM
COc1ccc(/C=C\c2cc(OC)c(OC)c(OC)c2)cc1O [Combretastatin A4]	0.001 to 0.002	0.075 to 0.15	0.001 to 0.002	0.05	0.001 to 0.002	
COc1ccc(CCc2cc(OC)c(OC)c(OC)c2)c(O)c1O [Combretastatin B1, reference compound]	0.2 to 0.3		0.2 to 0.3		0.5	
COc1ccc(CCc2cc(O)c(OC)c(OC)c2)cc1O [Combretastatin B2, reference compound]	0.8 to 1		1.1		0.125	
O=C1N[C@H]2[C@H](O)[C@H](O)[C@@H](O)[C@H](O)[C@@H]2c2cc3c(c(O)c21)OCO3 [Pancratistatin]						IC50 ([1]; Homo sapiens, HMVEC, read-out: IC50 values HMVEC): 20 to 25 µM; IC50 ([2]; Homo sapiens, Fibroblast, read-out: IC50 values HDF): 20 µM
CC(=O)O[C@H]1C(=O)[C@@]2(C)[C@H]([C@H](OC(=O)c3ccccc3)[C@]3(O)C[C@H](OC(=O)[C@H](O)[C@@H](NC(=O)c4ccccc4)c4ccccc4)C(C)=C1C3(C)C)[C@]1(OC(C)=O)CO[C@@H]1C[C@@H]2O [taxol, reference compound]						clonogenic toxicity to HMVEC after 1 hour exposure versus 6 hours [1]: did not induce maximum toxicity
CC(=O)O[C@@]12CO[C@@H]1C[C@H](O)[C@@]1(C)C(=O)[C@H](O)C3=C(C)[C@@H](OC(=O)[C@H](O)[C@@H](NC(=O)OC(C)(C)C)c4ccccc4)C[C@@](O)([C@@H](OC(=O)c4ccccc4)[C@H]21)C3(C)C [taxotere, reference compound]						clonogenic toxicity to HMVEC after 1 hour exposure versus 6 hours [1]: did not induce maximum toxicity
Amino Combretastatin A4 Phosphoroamidate		8 to 10		15 to 20		
Combretastatin A1 Na2PO4		10 to 15		5 to 10		
Combretastatin A1 Nicotinamide PO4		10 to 15		> 10		
Combretastatin A1 Piperazine PO4		10 to 15		1 to 2		
Pancratistatin Na2PO4		20 to 25		60 to 80		
